The results in this text go back to patent US20200277268A1, “PENTAFLUOROPHENYL SULFONAMIDE COMPOUNDS, COMPOSITIONS AND USES THEREOF” (DALRIADA THERAPEUTICS INC., priority 2017, published 2020).

Holding throughout (format): cell-based
Assay [1] concerns primary human fibroblast cells (PHF). In words: CellTiter-Blue cell viability, PHF. The settings on record: non-cancerous, 72 hours. The procedure:
(§1) The anti-cancer efficacy of exemplary compounds of the application were assessed in vitro against different cancer cell lines. Cell viability was examined following treatment at various concentrations of inhibitor (0.097656-50 μM) using a CellTiter-Blue® cell viability assay. 1×10^4 cells/well were plated in 96-well assay plates in culture medium. All cells were grown in DMEM, IMDM and RPMI-1640 supplemented with 10% fetal bovine serum (FBS). In some instances, FBS was removed for periods ranging from 16-24 hours, and re-introduced with test compound addition. After 24 hrs, test compounds and vehicle controls were added to appropriate wells such that the final volume was 100 μl in each well. The cells were cultured for the desired test exposure period (72 hours) at 37° C. and 5% CO2. The assay plates were removed from 3° C. incubator and 20 μl/well of CellTiter-Blue® Reagent was added. The plates were incubated using standard cell culture conditions for 1-4 hours. Afterwards, the plates were shaken for 10 seconds and florescence was recorded at 560/590 nm using a Cytation 3 spectrophotometer. IC50 values were determined using non-linear regression analysis with GraphPad Prism 6.0 (GraphPad Software Inc.).

Another assay deals with MOLM13. Nature of the assay: CellTiter-Blue cell viability, MOLM13. The settings on record: Homo sapiens, MOLM-13; AML cell line, 72 hours. A digest of the protocol:
(§2)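 Cells were seeded at 1×10^4/well, grown 24 h in FBS-supplemented medium, then exposed to compound (0.097656–50 μM) for 72 h at 37° C, 5% CO2. Viability was read by CellTiter-Blue fluorescence (560/590 nm) after 1–4 h reagent incubation, with IC50 derived by non-linear regression.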

For another assay, the system named is MV4-11. Nature of the assay: CellTiter-Blue cell viability, MV4-11. The settings on record: Homo sapiens, MV4-11; AML cell line, 72 hours. A digest of the protocol:
as §2

The next assay concerns GBM8. In words: Proliferation of patient derived GBM BTIC line GBM8. The settings on record: 62.5, 125, 250 nM, four days. As for the experimental part: (§3) Glioblastoma (GBM) tumor cells with stem-cell properties termed brain tumor initiating cells (BTICs,) are enriched using serum-free culture. Effects of select exemplary compounds were tested on cell proliferation in patient derived GBM BTIC lines: GBM8 and BT428. GBM BTICs were cultured in NeuroCult™ NS-A Proliferation Medium (STEMcell Technologies) supplemented with epidermal growth factor (20 ng/mL), basic fibroblast growth factor (10 ng/mL) and 2 ug/mL of Heparin. The cells were dissociated into single cells and viable cells sorted into 96 well plate at a density of 1000 cells/well. The cells were then treated with varying doses of selected compounds (250 nM, 125 nM, 62.5 nM) with three technical replicates per dilution. DMSO was used as control. Four days following the addition of compounds, the proliferative capacity of GBM BTICs was assessed using PrestoBlue Cell Viability reagent (Invitrogen).

Assay [2] relates to healthy human lung cells (MRC9). Nature of the assay: CellTiter-Blue cell viability, MRC9. The following applies: non-cancerous, 72 hours. The procedure: as §1
For another assay, the system named is BT428. In words: Proliferation of patient derived GBM BTIC line BT428. The settings on record: 62.5, 125, 250 nM, four days. As for the experimental part: as §3

SMILES strings stand for the structures.

Turning to `O=S(=O)(c1c(F)c(F)c(F)c(F)c1F)N(Cc1ncc(F)cc1F)C1CC1` [Compound I-37, N-cyclopropyl-N-((3,5-difluoropyridin-2-yl)methyl)-2,3,4,5,6-pentafluorobenzenesulfonamide], the IC50 was 8.7 µM in assay [1], 2.89 µM with MOLM13, 1.69 µM in the assay with MV4-11 and 22 µM in assay [2]. In addition, the “effect on cell proliferation in GBM8” value with GBM8 is recorded as “show potency”.
`O=S(=O)(c1c(F)c(F)c(F)c(F)c1F)N(Cc1ncccc1C(F)(F)F)C1CC1` [Compound I-43, N-cyclopropyl-2,3,4,5,6-pentafluoro-N-((3-(trifluoromethyl)pyridin-2-yl)methyl)benzenesulfonamide]: the “effect on cell proliferation in BT428” value in the assay on BT428 was “show potency”. Moreover, the IC50 in the assay with MOLM13 was found to be 4.1 µM; in the assay on MV4-11, 1.67 µM; in assay [2] it was 8.4 µM.
